{"source": "patent US9913873B2", "about": "“Turmeric extract containing soft pastilles” (priority 2013, dated 2018)", "assay": "Preliminary finding on bioavailability of pure curcumin"}
{"smiles": "COc1cc(/C=C/C(=O)CC(=O)/C=C/c2ccc(O)c(OC)c2)ccc1O", "note": "[Curcumin]", "values": [{"measurement": "Bioavailability", "result": "poor"}]}
